Laboratory results: PMC6915728 (Nature Communications, 2019)
Read-outs that look alike come from different tables or passages of the source.

What was measured:
[1] = test system: bacterial species in which the gene showed activity; conditions: cited from earlier work
E. coli BW25113 ΔmlaD = assay: MIC, serial broth dilution, mlaD knockout strain vs wild type; format: cell-based, Escherichia coli; conditions: mlaD deletion strain relative to control (E. coli BW25113); 3 replicates each; from optical density values of serial dilution plates, AMP in µg ml-1
Description: What could be the mechanism behind the antagonistic action of this pathway on membrane- versus intracellular-targeting AMPs? Since MlaD is part of a protein complex, it may lead to a loss-of-function effect upon overexpression[41],[42]. To test this, we asked whether overexpression and deletion of mlaD cause similar changes in susceptibility to a representative set of membrane- and intracellular-targeting AMPs.
(§1) Minimum inhibitory concentrations (MIC) were determined with a standard serial broth dilution technique with a minor modification. Specifically, instead of a two-fold dilution series, smaller AMP concentration steps were used (typically 1.2-fold) for two reasons. […] Second, gene overexpressions caused typically only small changes in the MICs of AMPs and therefore higher resolution was required. The protocol was as follows. From a stock solution of an AMP, 12-steps serial dilution was prepared in fresh MS medium in 96-well microtiter plates. Each AMP was represented in 11 different concentrations (3 wells per AMP concentration per strain). Three wells contained only medium to check the growth in the absence of AMP. After overnight growth in MS medium supplemented with chloramphenicol, bacterial strains were diluted 20-fold into fresh MS medium and grown until the cell density reached OD600 ~1. Cells were induced by 100 µM of IPTG and incubated for 1 h at 30 °C with continuous shaking at 300 rpm. Following incubation, approximately half-million cells were inoculated into the wells of the 96-well microtiter plate with a 96‐pin replicator. We used three independent replicates for each strain and the corresponding control. Two rows in the 96-well plate contained only MS medium in order to obtain the background OD value of the medium. Plates were incubated at 30 °C with continuous shaking at 300 rpm. After 20–24 h of incubation, OD600 values were measured in a microplate reader (Biotek Synergy 2).
A mlaD knockout strain of E. coli BW25113 carrying a kanamycin resistance cassette in the position of the gene was selected from the KEIO collection. The resistance marker was removed using plasmid-borne (pFT-A) expression of FLP recombinase leading to excision of the kanamycin resistance cassette. Cassette excision was verified by a polymerase chain reaction using the primers mlaD_del_ver_Fw (5′- […]) and mlaD_del_ver_Rev (5′- […]).
Supplementary Figure 13. […] The bacterial susceptibility of the mutant to AMPs was tested by MIC determination. Growth is shown relative to growth in the absence of the corresponding AMP. The blue line represents the mlaD knockout strain and the orange line represents the control strain (wild-type E. coli BW25113). Error bars indicate the standard errors based on three biological replicates. Source data are provided in the Source Data file.

[2] = test system: E. coli BW25113 overexpression strains (ASKA plasmids); assay: Minimum inhibitory concentration (MIC), serial broth dilution, single-gene overexpression strains vs empty-vector control; format: cell-based, Escherichia coli; conditions: for Relative MIC: broth dilution, MS medium, 100 µM IPTG, 30 °C, 20-24 h, OD600, 3 replicates
Description: as §1

bacterial membrane = conditions: literature mining; ref superscript numbers in the cell, listed in Supplementary Data 7 sheet References; cited from earlier work
From the text: Supplement 41467_2019_13618_MOESM10_ESM.xlsx, sheet "AMP details" | column: Pore formation

[3] = test system: AMP-evolved E. coli lines; conditions: ref Spohn et al 2019, cited from earlier work
From the text: Supplement 41467_2019_13618_MOESM13_ESM.xlsx, sheet "Figure 6 and S15" | column: A comprehensive dataset of antimicrobial susceptibility of AMP-adapted lines to antimicrobial peptides (AMPs).

[4] = overexpression strain narY, MIC of overexpression strain / MIC of empty-plasmid control

GIINTLQKYYRVRGGRAVLSLPKEEQIGKSTRGRKRRKK [HBD3, Human beta-defensin-3, human host-defense peptide; cluster C2]
Gene that modulates bacterial susceptibility to the AMP ([1]; Staphylococcus epidermidis, ref http://onlinelibrary.wiley.com/doi/10.1046/j.1462-5822.2004.00367.x/epdf): icaA(ica operon)
Average relative change in MIC (E. coli BW25113 ΔmlaD): 1.56
Average relative change in MIC ([2]; mlaD overexpression strain relative to control (wild-type+empty vector), 3 replicates each, from optical density values of serial dilution plates, AMP in µg ml-1): 1.75
Relative MIC ([2]; overexpression strain hyfA, MIC of overexpression strain / MIC of empty-plasmid control): 0.8
Relative MIC ([2]; overexpression strain mlaD, MIC of the overexpression strain / MIC of the control strain (wild-type carrying the empty plasmid)): >1.55
Relative MIC [2, 4]: 0.8

Peptide glycine-leucine amide [PGLA]
Gene that modulates bacterial susceptibility to the AMP ([1]; Salmonella typhimurium, Salmonella typhi, ref http://www.sciencedirect.com/science/article/pii/S009286740081750X): pagP
Pore formation (whether AMP makes pores in the bacterial membrane) (bacterial membrane): Yes10,11
Relative change in MIC (MIC of the AMP-adpated line / MIC of the ancestral strain) ([3]; AMP-adapted line BAC5_3): 1.4
Relative change in MIC (MIC of the AMP-adpated line / MIC of the ancestral strain) ([3]; AMP-adapted line BAC5_5): 1.1
Relative change in MIC (MIC of the AMP-adpated line / MIC of the ancestral strain) ([3]; AMP-adapted line BAC5_7): 0.9
Relative change in MIC (MIC of the AMP-adpated line / MIC of the ancestral strain) ([3]; AMP-adapted line BAC5_10): 1.3
Relative change in MIC (MIC of the AMP-adpated line / MIC of the ancestral strain) ([3]; AMP-adapted line CAP18_2): 2.5
Relative change in MIC (MIC of the AMP-adpated line / MIC of the ancestral strain) ([3]; AMP-adapted line CAP18_5): 5.2
Relative change in MIC (MIC of the AMP-adpated line / MIC of the ancestral strain) ([3]; AMP-adapted line CAP18_6): 1.6
Relative change in MIC (MIC of the AMP-adpated line / MIC of the ancestral strain) ([3]; AMP-adapted line CAP18_8): 3
Relative change in MIC (MIC of the AMP-adpated line / MIC of the ancestral strain) ([3]; AMP-adapted line CAP18_10): 4.3
Relative change in MIC (MIC of the AMP-adpated line / MIC of the ancestral strain) ([3]; AMP-adapted line HBD3_3): 2.3
Relative change in MIC (MIC of the AMP-adpated line / MIC of the ancestral strain) ([3]; AMP-adapted line HBD3_6): 3.6
Relative change in MIC (MIC of the AMP-adpated line / MIC of the ancestral strain) ([3]; AMP-adapted line HBD3_8): 3.3
Relative change in MIC (MIC of the AMP-adpated line / MIC of the ancestral strain) ([3]; AMP-adapted line HBD3_10): 1.9
Relative change in MIC (MIC of the AMP-adpated line / MIC of the ancestral strain) ([3]; AMP-adapted line LL37_1): 1.4
Relative change in MIC (MIC of the AMP-adpated line / MIC of the ancestral strain) ([3]; AMP-adapted line LL37_3): 1.9
Relative change in MIC (MIC of the AMP-adpated line / MIC of the ancestral strain) ([3]; AMP-adapted line LL37_6): 1.8
Relative change in MIC (MIC of the AMP-adpated line / MIC of the ancestral strain) ([3]; AMP-adapted line LL37_7): 5.2
Relative change in MIC (MIC of the AMP-adpated line / MIC of the ancestral strain) ([3]; AMP-adapted line LL37_10): 1.8
Relative change in MIC (MIC of the AMP-adpated line / MIC of the ancestral strain) ([3]; AMP-adapted line PEX_1): 3.5
Relative change in MIC (MIC of the AMP-adpated line / MIC of the ancestral strain) ([3]; AMP-adapted line PEX_4): 3.5
Relative change in MIC (MIC of the AMP-adpated line / MIC of the ancestral strain) ([3]; AMP-adapted line PEX_5): 1.9
Relative change in MIC (MIC of the AMP-adpated line / MIC of the ancestral strain) ([3]; AMP-adapted line PEX_6): 2.1
Relative change in MIC (MIC of the AMP-adpated line / MIC of the ancestral strain) ([3]; AMP-adapted line PEX_7): 2.9
Relative change in MIC (MIC of the AMP-adpated line / MIC of the ancestral strain) ([3]; AMP-adapted line PR39_1): 1.6
Relative change in MIC (MIC of the AMP-adpated line / MIC of the ancestral strain) ([3]; AMP-adapted line PR39_2): 1.5
Relative change in MIC (MIC of the AMP-adpated line / MIC of the ancestral strain) ([3]; AMP-adapted line PR39_5): 0.8
Relative change in MIC (MIC of the AMP-adpated line / MIC of the ancestral strain) ([3]; AMP-adapted line PR39_7): 1.5
Relative change in MIC (MIC of the AMP-adpated line / MIC of the ancestral strain) ([3]; AMP-adapted line PR39_10): 0.4
Relative change in MIC (MIC of the AMP-adpated line / MIC of the ancestral strain) ([3]; AMP-adapted line PROA_2): 1.6
Relative change in MIC (MIC of the AMP-adpated line / MIC of the ancestral strain) ([3]; AMP-adapted line PROA_3): 1.1
Relative change in MIC (MIC of the AMP-adpated line / MIC of the ancestral strain) ([3]; AMP-adapted line PROA_7): 0.6
Relative change in MIC (MIC of the AMP-adpated line / MIC of the ancestral strain) ([3]; AMP-adapted line PROA_8): 1.2
Relative change in MIC (MIC of the AMP-adpated line / MIC of the ancestral strain) ([3]; AMP-adapted line PROA_9): 0.9
Relative change in MIC (MIC of the AMP-adpated line / MIC of the ancestral strain) ([3]; AMP-adapted line PXB_2): 1.8
Relative change in MIC (MIC of the AMP-adpated line / MIC of the ancestral strain) ([3]; AMP-adapted line PXB_5): 1.5
Relative change in MIC (MIC of the AMP-adpated line / MIC of the ancestral strain) ([3]; AMP-adapted line PXB_6): 8
Relative change in MIC (MIC of the AMP-adpated line / MIC of the ancestral strain) ([3]; AMP-adapted line PXB_8): 4.5
Relative change in MIC (MIC of the AMP-adpated line / MIC of the ancestral strain) ([3]; AMP-adapted line PXB_10): 5.5
Relative MIC ([2]; overexpression strain gadW, MIC of overexpression strain / MIC of empty-plasmid control): 0.63
Relative MIC ([2]; overexpression strain lptB, MIC of overexpression strain / MIC of empty-plasmid control): 1.66
Relative MIC ([2]; overexpression strain mlaC, MIC of overexpression strain / MIC of empty-plasmid control): 1.3
Relative MIC ([2]; overexpression strain mzrA, MIC of overexpression strain / MIC of empty-plasmid control): 1.2
Relative MIC [2, 4]: 0.8
Relative MIC ([2]; overexpression strain nikB, MIC of overexpression strain / MIC of empty-plasmid control): 1.25
Relative MIC ([2]; overexpression strain ptsN, MIC of overexpression strain / MIC of empty-plasmid control): 0.71
Relative MIC ([2]; overexpression strain uhpC, MIC of overexpression strain / MIC of empty-plasmid control): 1.25
